# According to patent publication EP4570803A1, “SALT FORM AND CRYSTAL FORM OF 5,6-DIHYDROTHIENO[3,4-H]QUINAZOLINE COMPOUND AND PREPARATION METHOD THEREFOR” (NovaOnco JS Therapeutics Co., Ltd., priority 2022, dated 2024):
# Columns and labels:
# [1] = Pharmacokinetic study of oral administration in male beagle dogs; assay type: in vivo
# Experimental: Oral administration group: Weigh an appropriate amount of the test compound (calculated in free form), dissolve it in a 0.5% MC aqueous solution, vortex and sonicate for 10 min until the compound was milky white and uniformly suspended, and prepare a 1.0 mg/mL uniform suspension solution for use. Male beagle dogs weighing about 11 kg were selected and orally administered with the test compound. Sample collection time was: 0.083, 0.25, 0.5, 1, 2, 4, 6, 8, and 24 hours.
# 1 mL of whole blood was collected from the forelimb vein to prepare plasma for concentration determination by high performance liquid chromatography - tandem mass spectrometry (LC-MS/MS). The non-compartmental model of WinNonlin 8.2.0 (Pharsight, Mountain View, CA), pharmacokinetic software, was used to process plasma concentrations, and the linear logarithmic trapezoidal method was used to calculate pharmacokinetic parameters. Pharmacokinetic study results of crystalline form A, crystalline form B and crystalline form C
# [2] = Hygroscopicity study by Dynamic Vapor Sorption (DVS); assay type: physicochemical; details: for Hygroscopicity classification: 25°C and 80% RH; for ΔW: weight gain at 25°C, humidity 80 % RH
# Experimental: • Instrument model: SMS DVS Intrinsic Dynamic Vapor Sorption Instrument • Test conditions: Take a sample (10 ~ 30 mg) and place it in the DVS sample pan for testing.
# Hygroscopicity classification
# 10-30 mg of the crystalline form A of the compound of formula (I) was placed in a DVS sample tray for testing.
# 10-30 mg of the crystalline form B of the compound of formula (II) was placed in a DVS sample tray for testing.
# 10-30 mg of the crystalline form C of the compound of formula (III) was placed in a DVS sample tray for testing.
# [3] = Solid stability test at high temperature and high humidity (XRPD); assay type: physicochemical
# Experimental: According to the "Guidelines for Stability Testing of APIs and Preparations" (Chinese Pharmacopoeia 2020 Edition, Part IV, General Rules 9001), the stabiilty of the crystalline form A of compound of formula (I) and the crystalline form B of compound of formula (II) was investigated at high temperature and high humidity (40°C/75%RH, open) (60°C/75%RH, open) conditions.
# Weigh 10-30 mg of the crystalline form A of the formula (I) and the crystalline form B of the compound of formula (II), place them at the bottom of a glass sample bottle, and spread them into a thin layer. The samples were placed open to ensure that the samples were fully in contact with the ambient air. The samples placed under different conditions were sampled and tested (XRPD) on the 10th day, 30th day, and 60th day, and the test results were compared with the initial test results on day 0. Stability test results of the crystalline form of compound A of formula (I) and the crystalline form B of compound of formula (II)
# [4] = target: T1, human PLK1 protein kinase (Homo sapiens, UniProt P53350); experiment: 33P isotope-labeled PLK1 kinase activity assay in vitro; assay type: biochemical
# T1 construct: purchased Reaction Biology Corp
# T1 sequence (P53350 whole entry): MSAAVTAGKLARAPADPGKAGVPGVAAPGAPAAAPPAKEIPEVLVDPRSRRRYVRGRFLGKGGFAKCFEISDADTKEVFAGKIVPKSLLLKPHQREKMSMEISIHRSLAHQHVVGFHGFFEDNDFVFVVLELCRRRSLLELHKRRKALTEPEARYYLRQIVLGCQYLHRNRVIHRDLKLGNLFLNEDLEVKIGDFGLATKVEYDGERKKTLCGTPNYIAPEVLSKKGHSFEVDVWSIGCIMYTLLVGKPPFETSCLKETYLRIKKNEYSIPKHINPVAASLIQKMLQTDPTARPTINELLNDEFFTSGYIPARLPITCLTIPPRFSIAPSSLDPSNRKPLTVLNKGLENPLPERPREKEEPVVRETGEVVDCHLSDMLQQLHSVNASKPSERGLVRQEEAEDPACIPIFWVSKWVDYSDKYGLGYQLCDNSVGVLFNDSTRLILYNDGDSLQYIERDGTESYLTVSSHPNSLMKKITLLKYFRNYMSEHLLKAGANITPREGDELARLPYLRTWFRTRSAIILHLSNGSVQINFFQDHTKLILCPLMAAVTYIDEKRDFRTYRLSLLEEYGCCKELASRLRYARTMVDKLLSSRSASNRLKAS
# Experimental: The IC50 value was determined using ^33P isotope-labeled kinase activity assay (Reaction Biology Corp) to evaluate the inhibitory ability of the test compounds on human PLK1 protein kinase.
# Buffer conditions: 20 mM HEPES (pH 7.5), 10 mM MgCl2, 1 mM EGTA, 0.01% Brij35, 0.02 mg/ml BSA, 0.1 mM Na3VO4, 2 mM DTT, 1% DMSO
# Test steps: Dissolve the test compound in DMSO at room temperature to prepare a 10 mM solution for use. Dissolve the substrate Casein in a freshly prepared buffer (final concentration 20 µM), add the tested PLK1 kinase (final concentration 12 nM) and mix well. Add the DMSO-dissolved test compound stock solution to the above mixed reaction solution using the acoustic pipetting system Echo 550 according to the set final concentration gradient (highest final concentration was 1 µM, 3-fold dilution, 10 gradients). After incubation at room temperature for 20 minutes, add ^33 P-ATP (final concentration 0.01 µCi/µL), incubate at room temperature for 120 minutes, and then spot the reaction solution on P81 ion exchange filter paper (Whatman # 3698-915). After repeatedly washing the filter paper with 0.75% phosphoric acid solution, the level of residual radioactive phosphorylated substrate on the filter paper was determined. % kinase activity = kinase activity test compound/ kinase activity blank group (DMSO) × 100%. […]
# [5] = Crystalline form screening: anti-solvent crystallization; assay type: physicochemical; details: 25 - 5 °C
# Source text: The operation process of anti-solvent crystallization was to dissolve a certain amount of the crystalline form A of the compound of formula (I) in a positive solvent to obtain a solution of the raw material drug, slowly add the raw material drug solution to the anti-solvent at a certain temperature, and filter out any solid precipitation for analysis. Table 8. Anti-solvent crystallization
# [6] = Crystalline form screening: suspension crystallization; assay type: physicochemical; details: for Result (crystal form): 50 °C, suspension
# Source text: The operation process of suspension crystallization was to weigh a certain amount of the crystalline form A of the compound of formula (I), add a certain amount of solvent, maintain the system in a state of suspension and stir at a certain temperature, and filter out the solid for analysis after a period of time. Table 6. Suspension crystallization
# [7] = Crystalline form screening: cooling crystallization; assay type: physicochemical; details: 50-25 °C
# Source text: The cooling crystallization operation process was to dissolve a certain amount of the crystalline form A of the compound of formula (I) in a certain amount of solvent at high temperature, stir at high temperature for a period of time, and then cool to a lower temperature at a certain cooling rate. If solid precipitates after cooling to a low temperature, filter it out for solid state analysis. Table 7. Cooling crystallization
# [8] = dog, 5 mg/kg, PO, 5.0 mpk (calculated in free state), 0.5% MC aqueous suspension, plasma
# [9] = listed as crystalline form C of the compound of formula (III)
# [10] = dog, plasma, po, 5 mg/kg, 5.0 mpk (calculated in free state), 0.5% MC aqueous suspension
smiles,measurement,setting,value
CSc1sc(C(N)=O)c2c1-c1nc(Nc3cc(N4CCN(C)CC4)ccc3OC(F)(F)F)ncc1CC2 [listing 1 of 3 here],AUC(0-t) at 24 h,[1]; [8],1.59 µM·h
same,Cmax,[1]; [8],132 nM
same,Tmax,[1]; [8],6 h
same,half-life,[1]; [8],4 h
same,Hygroscopicity classification,[2]; [9],hygroscopic
same,ΔW,[2]; [9],2.919%
CSc1sc(C(N)=O)c2c1-c1nc(Nc3cc(N4CCN(C)CC4)ccc3OC(F)(F)F)ncc1CC2 [listing 2 of 3 here],Crystal form,"[3]; 40 °C /75%RH, open, 10 days",crystal form A
same,Crystal form,"[3]; 40 °C /75%RH, open, 30 days",crystal form A
same,Crystal form,"[3]; 40 °C /75%RH, open, 60 days",crystal form A
same,Crystal form,"[3]; 60 °C /75%RH, open, 10 days",crystal form A
same,Crystal form,"[3]; 60 °C /75%RH, open, 30 days",crystal form A
same,Crystal form,"[3]; 60 °C /75%RH, open, 60 days",crystal form A
same,Crystal form,"[3]; Initial sample, Day 0",crystal form A
same,stability under high temperature and high humidity conditions,[3]; conclusion,good stability
same,inhibitory activity against PLK1,[4]; conclusion,good inhibitory activity
same,IC50,"[4]; substrate Casein 20 µM, PLK1 12 nM, 33P-ATP, 120 minutes at room temperature",2.48 nM
same,absorption after oral administration,[1]; conclusion,well absorbed
same,AUC(0-t),[1]; [8],0.907 µM·h
same,Cmax,[1]; [8],106 nM
same,Tmax,[1]; [8],3 h
same,half-life,[1]; [8],4.6 h
same,Result (crystal form),"[5]; Condition 1: solvent THF, antisolvent H2O, 2.0+4.0 mL",crystal form A
same,Result (crystal form),"[5]; Condition 2: solvent THF, antisolvent IPA, 2.0+6 0. mL",crystal form A
same,Result (crystal form),"[5]; Condition 3: solvent THF, antisolvent Tol, 2.0+4.0 mL",crystal form A
same,Result (crystal form),"[5]; Condition 4: solvent DCM, antisolvent ACN, 4.0 mL",crystal form A
same,Result (crystal form),"[5]; Condition 5: solvent DCM, antisolvent MTBE, 4.0 mL",crystal form A
same,Result (crystal form),"[5]; Condition 6: solvent DMSO, antisolvent EtOAc, 0.6+8.0 mL",crystal form A
same,Hygroscopicity classification,[2],not hygroscopic
same,ΔW,[2],0.1671%
same,Result (crystal form),[6]; Condition 1: Acetonitrile 2.0 mL,crystal form A
same,Result (crystal form),[6]; Condition 2: Ethyl acetate 2.0 mL,crystal form A
same,Result (crystal form),[6]; Condition 3: Toluene 2.0 mL,crystal form A
same,Result (crystal form),[6]; Condition 4: Butanone 1.0 mL,crystal form A
same,stability in different solvents and at different temperatures,"[6]; conclusion over suspension, cooling and anti-solvent crystallization",good stability
same,Result (crystal form),[7]; Condition 1: Tetrahydrofuran 1.0 mL,crystal form A
same,Result (crystal form),[7]; Condition 2: 2- methyl - tetrahydrofuran 5.0 mL,crystal form A
CSc1sc(C(N)=O)c2c1-c1nc(Nc3cc(N4CCN(C)CC4)ccc3OC(F)(F)F)ncc1CC2 [listing 3 of 3 here],Crystal form,"[3]; 40 °C /75%RH, open, 10 days, listed as Crystalline Form B of Compound of Formula (II)",crystal form B
same,Crystal form,"[3]; 60 °C /75%RH, open, 10 days, listed as Crystalline Form B of Compound of Formula (II)",crystal form B
same,Crystal form,"[3]; Initial sample, Day 0, listed as Crystalline Form B of Compound of Formula (II)",crystal form B
same,AUC(0-t) at 24 h,[1]; [10],1.11 µM·h
same,Cmax,[1]; [10],123 nM
same,Tmax,[1]; [10],4 h
same,half-life,[1]; [10],5 h
same,Hygroscopicity classification,[2]; listed as crystalline form B of the compound of formula (II),hygroscopic
same,ΔW,[2]; listed as crystalline form B of compound (II),2.078%
